T/C data for eleven compounds are collected here from PubChem BioAssay AID270 (DTP/NCI, 2004).

“And” between values parts separate entries of the source, which are not always exact repeats. Equal values may be shown once. Inconclusive results are not listed.

The assay deals with BDF1 mice, s.c. Lewis lung carcinoma, T/C %. Description: NCI In Vivo Anticancer Drug Screen. Data for tumor model Lewis Lung Carcinoma (subcutaneous) in B6D2F1 (BDF1) mice. The method, then:
The antitumor activity of compounds was measured in mice bearing transplantable tumors. Survival or tumor size were measured and the results are expressed as the measurement made in the treated group (T) divided by the measurement made in the vehicle treated control group (C). The tumor model used in this assay is Lewis Lung Carcinoma (subcutaneous) in B6D2F1 (BDF1) mice

With `COc1cc(O)c2c(c1)Cc1cc(C)cc(O)c1C2=O`, the T/C reads like this: (endpoint: median survival time, dose: 0.1 mg/kg/injection, schedule: Q01DX009 (ip), vehicle: saline with Tween-80, higher = longer survival) 117 % of control; (endpoint: median survival time, dose: 0.2 mg/kg/injection, schedule: Q01DX009 (ip), vehicle: saline with Tween-80, higher = longer survival) 120 % of control and 122 % of control; (endpoint: median survival time, dose: 0.4 mg/kg/injection, schedule: Q01DX009 (ip), vehicle: saline with Tween-80, higher = longer survival) 108 % of control; (endpoint: median survival time, dose: 6.25 mg/kg/injection, schedule: Q01DX009 (ip), vehicle: saline with Tween-80, higher = longer survival) 110 % of control.

In the case of `CN(C)CC/C=C1\c2ccccc2Sc2ccc(Cl)cc21`, the T/C is, setting by setting: (endpoint: median survival time, dose: 1.87 mg/kg/injection, schedule: Q01DX001 (ip), vehicle: Klucel (hydroxypropylcellulose) (HPC), higher = longer survival) 102 % of control; (endpoint: median survival time, dose: 3.75 mg/kg/injection, schedule: Q01DX001 (ip), vehicle: Klucel (hydroxypropylcellulose) (HPC), higher = longer survival) 109 % of control; (endpoint: median survival time, dose: 7.5 mg/kg/injection, schedule: Q01DX001 (ip), vehicle: Klucel (hydroxypropylcellulose) (HPC), higher = longer survival) 88 % of control; (endpoint: median survival time, dose: 15.0 mg/kg/injection, schedule: Q01DX001 (ip), vehicle: Klucel (hydroxypropylcellulose) (HPC), higher = longer survival) 102 % of control.

For `CC(=O)OC(C)(C)/C=C/C(=O)[C@](C)(O)[C@H]1[C@H](O)C[C@@]2(C)[C@@H]3CC=C4[C@@H](C[C@H](O)C(=O)C4(C)C)[C@]3(CO)C(=O)C[C@]12C`, for the setting “endpoint: mean tumor weight, dose: 0.57 mg/kg/injection, schedule: Q01DX011 (ip), vehicle: saline, higher = larger tumour”, the T/C was 93 % of control.

On to `CCCCCCCCSC1=C(Cl)C(=O)C(OC)=C(OC)C1=O`, for which the T/C (endpoint: median survival time, dose: 12.5 mg/kg/injection, schedule: Q01DX009 (ip), vehicle: other, higher = longer survival) is 92 % of control.

On to `CS(=O)(=O)OCCCCOS(C)(=O)=O`, for which the T/C is, setting by setting: (endpoint: mean tumor weight, dose: 12.5 mg/kg/injection, schedule: Q01DX011 (ip), vehicle: carboxymethylcellulose (CMC), higher = larger tumour) 91 % of control and 104 % of control; (endpoint: median survival time, dose: 10.0 mg/kg/injection, schedule: Q01DX009 (ip), vehicle: Klucel (hydroxypropylcellulose) (HPC), higher = longer survival) 94 % of control; (endpoint: median survival time, dose: 10.0 mg/kg/injection, schedule: Q01DX009 (ip), vehicle: saline with Tween-80, higher = longer survival) 100 % of control; (endpoint: median survival time, dose: 20.0 mg/kg/injection, schedule: Q01DX009 (ip), vehicle: saline with Tween-80, higher = longer survival) 93 % of control; (endpoint: median survival time, dose: 40.0 mg/kg/injection, schedule: Q01DX009 (ip), vehicle: Klucel (hydroxypropylcellulose) (HPC), higher = longer survival) 92 % of control; (endpoint: median tumor weight (est.), dose: 10.0 mg/kg/injection, schedule: Q01DX009 (ip), vehicle: saline with Tween-80, higher = larger tumour) 86 % of control. Moreover, the T/C runs as follows: (endpoint: median tumor weight (est.), dose: 20.0 mg/kg/injection, schedule: Q01DX009 (ip), vehicle: saline with Tween-80, higher = larger tumour) 80 % of control; (endpoint: median tumor weight (est.), dose: 40.0 mg/kg/injection, schedule: Q01DX009 (ip), vehicle: saline with Tween-80, higher = larger tumour) 45 % of control.

Take `CC(=O)OC/C=C(C)/C=C/C=C(C)/C=C/C1=C(C)CCCC1(C)C`: the T/C (endpoint: median survival time, dose: 200.0 mg/kg/injection, schedule: Q01DX005 (ip), vehicle: saline with Tween-80, higher = longer survival) was 100 % of control.

Consider `COc1ccc2c(Cc3ccccc3)cncc2c1O`, for which the T/C is 90 % of control (endpoint: median survival time, dose: 12.5 mg/kg/injection, schedule: Q01DX009 (ip), vehicle: Klucel (hydroxypropylcellulose) (HPC), higher = longer survival); 101 % of control (endpoint: median survival time, dose: 25.0 mg/kg/injection, schedule: Q01DX009 (ip), vehicle: Klucel (hydroxypropylcellulose) (HPC), higher = longer survival); 91 % of control (endpoint: median survival time, dose: 50.0 mg/kg/injection, schedule: Q01DX009 (ip), vehicle: Klucel (hydroxypropylcellulose) (HPC), higher = longer survival); 101 % of control (endpoint: median survival time, dose: 100.0 mg/kg/injection, schedule: Q01DX009 (ip), vehicle: Klucel (hydroxypropylcellulose) (HPC), higher = longer survival).

Consider `C[C@]12CC[C@H]3[C@@H](CC[C@]4(O)C[C@@H](O)CC[C@]34/C=N/O)[C@@]1(O)CC[C@@H]2C1=COC(=O)C1`, for which the T/C reads like this: (endpoint: mean tumor weight, dose: 1.87 mg/kg/injection, schedule: Q01DX011 (ip), vehicle: carboxymethylcellulose (CMC), higher = larger tumour) 34 % of control; (endpoint: mean tumor weight, dose: 3.75 mg/kg/injection, schedule: Q01DX011 (ip), vehicle: carboxymethylcellulose (CMC), higher = larger tumour) 58 % of control; (endpoint: mean tumor weight, dose: 15.0 mg/kg/injection, schedule: Q01DX011 (ip), vehicle: carboxymethylcellulose (CMC), higher = larger tumour) 92 % of control; (endpoint: mean tumor weight, dose: 30.0 mg/kg/injection, schedule: Q01DX011 (ip), vehicle: carboxymethylcellulose (CMC), higher = larger tumour) 61 % of control.

In the case of `CC[C@H](c1ccc(O)cc1)[C@@H](CC)c1ccc(O)cc1`, the T/C was 92 % of control (endpoint: mean tumor weight, dose: 12.5 mg/kg/injection, schedule: Q01DX011 (ip), vehicle: saline, higher = larger tumour); 82 % of control (endpoint: mean tumor weight, dose: 25.0 mg/kg/injection, schedule: Q01DX011 (ip), vehicle: saline, higher = larger tumour); 47 % of control (endpoint: mean tumor weight, dose: 50.0 mg/kg/injection, schedule: Q01DX011 (ip), vehicle: saline, higher = larger tumour); 16 % of control (endpoint: mean tumor weight, dose: 100.0 mg/kg/injection, schedule: Q01DX011 (ip), vehicle: saline, higher = larger tumour).

For `Cc1cc(O)c(C(C)C)cc1S(=O)(=O)O` (tested in a mixture with another compound), the T/C is 95 % of control (endpoint: mean tumor weight, dose: 25.0 mg/kg/injection, schedule: Q01DX011 (ip), vehicle: other, higher = larger tumour); 105 % of control (endpoint: mean tumor weight, dose: 50.0 mg/kg/injection, schedule: Q01DX011 (ip), vehicle: other, higher = larger tumour); 114 % of control (endpoint: mean tumor weight, dose: 100.0 mg/kg/injection, schedule: Q01DX011 (ip), vehicle: other, higher = larger tumour); 98 % of control (endpoint: mean tumor weight, dose: 200.0 mg/kg/injection, schedule: Q01DX011 (ip), vehicle: other, higher = larger tumour).

Turning to `C[C@H]1CC[C@@]2(NC1)O[C@H]1C[C@H]3[C@@H]4CC[C@H]5C[C@@H](O)CC[C@]5(C)[C@H]4CC[C@]3(C)[C@H]1[C@@H]2C`, the T/C reads like this: (endpoint: mean tumor weight, dose: 3.13 mg/kg/injection, schedule: Q01DX011 (sc), vehicle: steriod suspending solution, higher = larger tumour) 83 % of control; (endpoint: mean tumor weight, dose: 6.25 mg/kg/injection, schedule: Q01DX011 (sc), vehicle: steriod suspending solution, higher = larger tumour) 108 % of control; (endpoint: mean tumor weight, dose: 12.5 mg/kg/injection, schedule: Q01DX011 (sc), vehicle: steriod suspending solution, higher = larger tumour) 96 % of control; (endpoint: mean tumor weight, dose: 25.0 mg/kg/injection, schedule: Q01DX011 (sc), vehicle: steriod suspending solution, higher = larger tumour) 96 % of control and 105 % of control; (endpoint: mean tumor weight, dose: 50.0 mg/kg/injection, schedule: Q01DX011 (sc), vehicle: steriod suspending solution, higher = larger tumour) 119 % of control; (endpoint: mean tumor weight, dose: 100.0 mg/kg/injection, schedule: Q01DX011 (sc), vehicle: steriod suspending solution, higher = larger tumour) 117 % of control. For the same compound, the T/C is, setting by setting: (endpoint: mean tumor weight, dose: 200.0 mg/kg/injection, schedule: Q01DX011 (sc), vehicle: steriod suspending solution, higher = larger tumour) 110 % of control; (endpoint: mean tumor weight, dose: 400.0 mg/kg/injection, schedule: Q01DX011 (sc), vehicle: steriod suspending solution, higher = larger tumour) 93 % of control.
